Assays:
IGFBP-1 = test: In vivo IGFBP-1 gene expression in kidney and liver (microarray); parameters: species or system Swiss Webster male mice; conditions: mice, oral gavage; time course; quantitatively different level between tissues; FIG. 3B
Procedure: To determine gene induction patterns over time, twenty four Swiss Webster male mice (30-32 g) were obtained from Simonsen, Inc. and treated by oral gavage with a 4 ml/kg volume of either 0.5% carboxymethyl cellulose (CMC; Sigma-Aldrich, St. Louis Mo.) (0 mg/kg/day) or […] compound B (25 mg/ml in 0.5% CMC) (100 mg/kg). At 4, 8, 16, 24, 48, or 72 hours after the final dose, animals were anesthetized with isoflurane. The mice were then sacrificed and tissue samples of kidney, liver, brain, lung, and heart were isolated and stored in RNALATER solution (Ambion) at −80° C.
(§1) RNA from tissues obtained from the experiments described above was isolated using the following protocol. A 50 mg section of each organ was diced, 875 μl of RLT buffer (RNEASY kit; Qiagen Inc., Valencia Calif.) was added, and the pieces were homogenized for about 20 seconds using a rotor-stator POLYTRON homogenizer (Kinematica, Inc., Cincinnati Ohio). […] The RNA was eluted into 80 μL of water and quantitated with RIBOGREEN reagent (Molecular Probes, Eugene Oreg.). […] The absorbance at 260 and 280 nm was measured to determine RNA purity and concentration.
(§2) Alternatively, tissue samples were diced and homogenized in TRIZOL reagent (Invitrogen Life Technologies, Carlsbad Calif.) using a rotor-stator POLYTRON homogenizer (Kinematica). […] The absorbance at 260 and 280 nm was measured to determine RNA purity and concentration. […]

GluT-1 = test: In vivo GluT-1 gene expression in kidney, dose response (microarray); parameters: species or system Swiss Webster male mice; conditions: mice, low dose (30 mg/ml) or high dose (100 mg/ml), oral gavage once per day for 4 days; FIG. 3A
Procedure: To investigate the dose response of compounds of the present invention, twelve Swiss Webster male mice (30-32 g) (obtained from Simonsen, Inc., Gilroy Calif.) were treated by oral gavage once per day for 4 days with a 4 ml/kg volume of either 0.5% carboxymethyl cellulose (CMC; Sigma-Aldrich, St. […] Four hours after the final dose, animals were anesthetized, sacrificed, and approximately 150 mg of liver and each kidney were isolated and stored in RNALATER solution (Ambion) at −20° C.
as §1, §2

O=C(O)CNC(=O)c1nc(Cl)c2ccccc2c1O [compound B, [(1-Chloro4-hydroxy-isoquinoline-3-carbonyl)-amino]-acetic acid]
IGFBP-1 expression in kidney and liver (IGFBP-1): almost identical temporal induction | expression of the gene encoding GluT-1 in kidney (GluT-1): dose-dependent alteration

From US8124582B2, “Treatment of diabetes” (FibroGen, Inc., priority 2002, dated 2012)
